In patent US20170216252A1, “ANTI-BACTERIAL PYRUVATE KINASE MODULATOR COMPOUNDS, COMPOSITIONS, USES AND METHODS” (SIMON FRASER UNIVERSITY, priority 2014, published 2017):
In brackets after ≈: the same amount, converted by molar mass. Like-named read-outs stand apart in the source and are kept apart here.

What was measured:
S. aureus ATCC 29213 = experiment: In vitro susceptibility, broth microdilution MIC; type: cell-based, Staphylococcus aureus; details: Staphylococcus aureus, read-out: MIC
Method: The antimicrobial activities of PK inhibitor candidates were determined using the 96-well microtiter standard 2-fold serial broth microdilution method as described by CLSI (formerly NCCLS) with the various gram-positive and gram-negative bacteria species mentioned above. Bacteria from a single colony were grown, overnight in either BHI Broth (VRE), mueller hinton broth (S. aureus 29213; MRSA USA400) or L-broth (E. coli, P. aeruginosa, S. typhimuriu, K. Pneumonia and A. baumannii). […] Culture plates were incubated for 18-24 h at 37° C., and optical density at 600 nm (OD600) was measured using a Benchmark Plus™ microplate spectrophotometer (Bio-Rad™). The absorbance control values for the series containing CAMHB and inhibitor were subtracted as background from the corresponding infected wells. The MIC was defined as the lowest concentration of test compound leading to complete inhibition of cell growth in relationship to compound-free control wells as determined by optical density. […] All assays were run in triplicate (Tables 1-6) or duplicate. Experiments were replicated at least twice to verify reproducibility using the above conditions.

MRSA PK = biological target: T1, MRSA PK (Staphylococcus aureus, UniProt Q6GG09); experiment: MRSA PK activity, continuous LDH-coupled assay; type: biochemical, S. aureus (MRSA strain Sanger 252); details: for inhibition at 10 µM: read-out: % inhibition at the highest concentration tested (IC50)
T1 construct: His tag (pET-28a(+) vector) (N); made in house; host or cells: E. coli BL-21 (DE3)
T1 sequence (Q6GG09 whole entry): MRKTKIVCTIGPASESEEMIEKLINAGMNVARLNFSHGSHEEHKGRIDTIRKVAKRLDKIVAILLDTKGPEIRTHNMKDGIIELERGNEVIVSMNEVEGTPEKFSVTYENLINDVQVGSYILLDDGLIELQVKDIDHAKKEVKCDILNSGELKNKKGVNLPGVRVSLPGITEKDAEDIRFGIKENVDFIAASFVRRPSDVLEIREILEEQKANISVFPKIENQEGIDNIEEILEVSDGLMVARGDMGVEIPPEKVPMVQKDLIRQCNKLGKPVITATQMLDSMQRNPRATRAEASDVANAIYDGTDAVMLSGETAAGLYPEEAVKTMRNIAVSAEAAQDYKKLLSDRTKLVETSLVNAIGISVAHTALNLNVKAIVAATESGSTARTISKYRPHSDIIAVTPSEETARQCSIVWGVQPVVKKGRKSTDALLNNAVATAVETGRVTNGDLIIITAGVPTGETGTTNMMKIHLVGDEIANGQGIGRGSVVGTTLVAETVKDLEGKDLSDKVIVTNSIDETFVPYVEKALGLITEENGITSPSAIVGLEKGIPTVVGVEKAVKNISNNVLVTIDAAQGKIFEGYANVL
Description: Genomic DNA of MRSA strain Sanger 252 extracted using DNeasy Tissue Kit™ (Qiagen™) was used as a template to generate the His-tagged MRSA PK. Human cDNA from MCF-7 breast cancer cell line (courtesy of Dr. J Wong, BC Cancer Research Center (Vancouver, Canada) was used as a template to generate the full-length human M2 PK enzyme. The following primer sets were used creating appropriate restriction sites (NdeI and XhoI sites underlined): For cloning of MRSA PK: M27F 5′-[…]-3′ and M27R 5′-[…]-3′, for cloning of human M2 PK isoform: hM2F 5′-[…]-3′ and hM2R 5′-[…]-3′. The resulting PCR fragments for each construct were cloned into the NdeI and XhoI unique sites of the bacterial expression vector pET-28a (+) (Novagen™). […] The sequence and the correct reading frame of all constructs were verified by sequencing. Human M1, R and L PK constructs in pET-28-a(+) vectors (courtesy of Dr. L. Cantley, Harvard Medical, School (Boston, USA)) were used to generate relevant recombinant His-tagged human PK isoforms.
MRSA and human constructs in pET-28a(+) were used to express relevant recombinant PK proteins in E. coli BL-21 (DE3). The proteins were expressed and purified using Ni-NTA agarose (Qiagen™) according to the manufacturer's protocol. Briefly, cells were grown to an absorbance of 0.4-0.5 at 600 nm in 2×YT medium, then induced with 0.1 mM IPTG for 3 h at 20° C. Cells were lysed by sonication on ice (3×10-s bursts with a 30-s recovery between bursts) in lysis buffer (0.2 mg/ml lysozyme, 50 mM Tris pH 7.5, 10 mM MgCl2, 200 mM NaCl, 100 mM KCl, 10% glycerol, 10 mM imidazole, 0.5% NP-40 and 1 mM DTT containing Complete™ protease inhibitor). Cell lysates were cleared by centrifugation (18,000×g in a Beckman™ JA-20 rotor) for 20 min at 4° C. and PK isoforms were purified by batch binding to Ni-NTA resin. The resins were then packed in columns (1×2 cm) and washed with 400 column volumes lysis buffer containing 30 mM imidazole. His-tagged PK isoforms were eluted with the same buffer containing 300 mM imidazole. The proteins were dialyzed overnight at 4° C. against 2000 volumes of ice-cold 30 mM Tris pH 7.5, 25 mM KCl, 5 mM MgCl2, 10% glycerol and 1 mM DTT to remove imidazole. All purification steps were done at 4° C.; enzymes were flash-frozen and stored at −70° C. […] Purity and physical integrity of proteins were assessed using SDS-polyacrylamide gel electrophoresis (SDS-PAGE) followed by coomassie blue staining. Protein concentration was estimated by Bradford assay (Bio-Rad Protein Assay™) using bovine serum albumin as a standard.
Candidate MRSA PK inhibitors were assayed for their ability to inhibit enzymatic activities of MRSA and human PKs. PK activity was determined using a continuous assay coupled to lactate dehydrogenase (LDH) in which the change in absorbance at 340 nm owing to oxidation of NADH was measured using a Benchmark Plus™ microplate spectrophotometer (Bio-Rad Laboratories, Hercules, Calif.). […] Reactions were initiated by the addition of 15 nM of one of the PK enzymes. PK activity proportional to the rate of change at 340 nm was expressed as specific activity (μmol/min/mg), which is defined as the amount of PK that catalyzes the formation of one micromole of either product per minute. Inhibitors were dissolved in DMSO with the final concentration of the solvent never exceeding 1% of the assay volume. IC50 values were calculated by curve fitting on a four-parameter dose-response model with variable slope using Graphpad Prism 5.0™ (GraphPad™ Software Inc., La Jolla, Calif.). […] Reactions were performed at 30° C. for up to 5 min. All values determined represent at least two measurements, in triplicate (Tables 1-6) or duplicate unless mentioned otherwise.

[1] = ATCC29213, Tables 1-6 and text, minimum concentration to give >98% inhibition of growth
[2] = Tables 1-6, 2 mM ADP, 10 mM PEP, 15 nM PK, read-out: IC50
[3] = ATCC29213, Table 8, tested at least in duplicate, differing values all given

Row | SMILES | MIC (S. aureus ATCC 29213; [1]) | IC50 (MRSA PK) | IC50 (MRSA PK; [2]) | inhibition at 10 µM (MRSA PK) | MIC (S. aureus ATCC 29213; [3])
1 | CC(=O)c1c(/C=C/c2ccccc2)[nH]c2cc(Br)ccc12 [Compound 38a, (E)-1-(6-bromo-2-styryl-1H-indol-3-yl)ethanone] | > 64 µg/mL | > 20000 nM | – | – | –
2 | Brc1ccc2cc(C#Cc3cc4ccc(Br)cc4[nH]3)[nH]c2c1 [Compound 25b, 1,2-Bis(6-bromo-1H-indol-2-yl)ethyne] | > 64 µg/mL | – | 2.4 nM | – | –
3 | COc1c(Br)cccc1C(=O)Nc1nc2ccc(Br)cc2s1 [Compound 84, 3-Bromo-N-(6-bromobenzo[d]thiazol-2-yl)-2-methoxybenzamide] | > 64 µg/mL | – | – | 84% | –
4 | CC(=O)c1c(CCc2ccccc2)[nH]c2cc(Br)ccc12 [Compound 39a, 1-(6-bromo-2-phenethyl-1H-indol-3-yl)ethanone] | > 64 µg/mL | 608 nM | – | – | –
5 | O=C(c1c(C#Cc2ncccn2)[nH]c2cc(Br)ccc12)C(F)(F)F [Compound 169, 1-(6-Bromo-2-(pyrimidin-2-ylethynyl)-1H-indol-3-yl)-2,2,2-trifluoroethanone] | – | > 100000 nM | – | – | > 64 µg/mL
6 | COC(=O)c1cc(Br)cc2[nH]c(-c3cc4c(C(=O)OC)cc(Br)cc4[nH]3)cc12 [Compound 163, Dimethyl 6,6′-dibromo-1H,1′H-[2,2′-biindole]-4,4′-dicarboxylate] | – | 50 to 100 nM | – | – | > 64 µg/mL
7 | Brc1ccc2cc(/C=C/c3ccccc3)[nH]c2c1 [Compound 36a, (E)-6-bromo-2-styryl-1H-indole] | > 64 µg/mL | 25 nM | – | – | –
8 | COC(=O)c1c(C(=O)Nc2ccc(OC)cc2)[nH]c2cc(Br)ccc12 [Compound 133, Methyl 6-bromo-2-((4-methoxyphenyl)carbamoyl)-1H-indole-3-carboxylate] | – | < 50 nM | – | – | > 64 µg/mL
9 | COc1ccc(/C=C/c2cc3ccc(Br)cc3[nH]2)nc1 [Compound 107, (E)-6-Bromo-2-(2-(5-methoxypyridin-2-yl)vinyl)-1H-indole] | – | 50 to 100 nM | – | – | > 64 µg/mL
10 | Clc1ccc(C#Cc2cc3ccc(Br)cc3[nH]2)nc1 [Compound 141, 6-bromo-2-((5-chloropyridin-2-yl)ethynyl)-1H-indole] | – | 100 to 1000 nM | – | – | > 64 µg/mL
11 | COc1ccc(NC(=O)c2[nH]c3cc(Br)ccc3c2C(=O)O)cn1 [Compound 136, 6-Bromo-2-((6-methoxypyridin-3-yl)carbamoyl)-1H-indole-3-carboxylic acid] | – | 100 to 1000 nM | – | – | > 64 µg/mL
12 | Clc1ccc2[nH]c(-c3cc4ccc(Br)cc4[nH]3)nc2c1 [Compound 164, 2-(6-bromo-1H-indol-2-yl)-5-chloro-1H-benzo[d]imidazole] | – | < 50 nM | – | – | 1 µg/mL (≈ 2.89 µM)
13 | Cc1c(/C=C/c2ccc(Cl)cc2)[nH]c2cc(Br)ccc12 [Compound 160, (E)-6-bromo-2-(4-chlorostyryl)-3-methyl-1H-indole] | – | < 50 nM | – | – | > 64 µg/mL
14 | O=C(Nc1nc2ccc(Br)cc2s1)c1cccc(Br)c1O [Compound 70, 3-Bromo-N-(6-bromobenzo[d]thiazol-2-yl)-2-hydroxybenzamide] | 4 µg/mL (≈ 9.34 µM) | – | 42.9 nM | – | –
15 | Brc1ccc(-c2c[nH]c3cc(Br)ccc23)cc1 [Compound 57, 6-bromo-3-(4-bromophenyl)-1H-indole] | 2 µg/mL (≈ 5.7 µM) | – | 102 nM | – | –
16 | Brc1ccc2cc(-c3ccc(-c4cc5ccc(Br)cc5[nH]4)nn3)[nH]c2c1 [Compound 49, 3,6-bis(6-Bromo-1H-indol-2-yl)pyridazine] | > 32 µg/mL | – | – | 70% | –
17 | O=C(c1c(/C=C/c2ccc(Br)cn2)[nH]c2cc(Br)ccc12)C(F)(F)F [Compound 174, (E)-1-(6-Bromo-2-(2-(5-bromopyridin-2-yl)vinyl)-1H-indol-3-yl)-2,2,2-trifluoroethanone] | – | > 1000 nM | – | – | 32 µg/mL (≈ 67.5 µM)
18 | Brc1ccc(-c2cncc(-c3cc4ccccc4[nH]3)n2)cc1 [Compound 60, 2-(6-(4-Bromophenyl)pyrazin-2-yl)-1H-indole] | > 64 µg/mL | – | – | 79% | –
19 | COC(=O)c1c(-c2cc3cc(Br)c(Br)cc3[nH]2)[nH]c2cc(Br)c(Br)cc12 [Compound 39d] | 4 µg/mL (≈ 6.6 µM) | 2.1 nM | – | – | –
20 | Brc1cncc(CCc2cc3ccc(Br)cc3[nH]2)c1 [Compound 121, 6-Bromo-2-(2-(5-bromopyridin-3-yl)ethyl)-1H-indole] | – | > 1000 nM | – | – | > 64 µg/mL
21 | C(=C\c1cc2ccccc2[nH]1)/c1cc2ccccc2[nH]1 [Compound 44] | > 64 µg/mL | – | – | 63% | –
22 | Brc1ccc2cc(/C=C/c3cn4ccccc4n3)[nH]c2c1 [Compound 110, (E)-2-(2-(6-Bromo-1H-indol-2-yl)vinyl)imidazo[1,2-a]pyridine] | – | < 50 nM | – | – | > 64 µg/mL
23 | Clc1cnc(C#Cc2cc3ccc(Br)cc3[nH]2)nc1 [Compound 142, 6-Bromo-2-((5-chloropyrimidin-2-yl)ethynyl)-1H-indole] | – | 50 to 100 nM | – | – | > 64 µg/mL
24 | Cn1c(C#Cc2cc3cc(Br)ccc3[nH]2)cc2cc(Br)ccc21 [Compound 48, 5-Bromo-2-((5-bromo-1H-indol-2-yl)ethynyl)-1-methyl-1H-indole] | > 64 µg/mL | – | – | 60% | –
25 | O=C(Nc1nc2ccc(Br)cc2s1)c1cc2ccccc2[nH]1 [Compound 54, N-(6-Bromobenzo[d]thiazol-2-yl)-1H-indole-2-carboxamide] | > 64 µg/mL | – | 11.1 nM | – | –
26 | O=C(O)c1cc(Br)cc2[nH]c(CCc3ccc(Cl)cc3)cc12 [Compound 159, 6-bromo-2-(4-chlorophenethyl)-1H-indole-4-carboxylic acid] | – | 100 to 1000 nM | – | – | 64 µg/mL (≈ 169 µM)
27 | Brc1ccc2[nH]c(C#Cc3cc4cc(Br)ccc4[nH]3)cc2c1 [Compound 45, 1,2-bis(5-Bromo-1H-indol-2-yl)ethyne] | > 64 µg/mL | – | – | 60% | –
28 | Oc1ccc(Br)cc1/C=N/c1nc2ccc(Br)cc2s1 [Compound 58] | 64 µg/mL (≈ 155 µM) | – | – | 77% | –
29 | Brc1ccc(/C=C/c2cc3ccc(Br)cc3[nH]2)cc1 [Compound 36b, (E)-6-bromo-2-(4-bromostyryl)-1H-indole] | > 64 µg/mL | 1 nM | – | – | –
30 | Cn1c(C(=O)Nc2nc3ccc(Br)cc3s2)cc2ccccc21 [Compound 69, N-(6-Bromobenzo[d]thiazol-2-yl)-1-methyl-1H-indole-2-carboxamide] | > 64 µg/mL | – | – | 61% | –
